Test results: ChEMBL document CHEMBL4507289, “Data for DCP probe GSM1” (2021)

Legend:
[1] = biological target: Sodium-dependent serotonin transporter (Homo sapiens, UniProt P31645); assay: GPCRScan assay: inhibition of SERT; set-up: radioligand conc. used [nm] 1.5 – 2.0, parental cells stable HEK
[2] = system: Tyrosine-protein kinase ABL1 (Homo sapiens), P00519 [H396P]; conditions: Compound concentration 1000.0 nM
[3] = biological target: Tyrosine-protein kinase ABL1 (Homo sapiens) (UniProt P00519); conditions: Compound concentration 1000.0 nM
[4] = biological target: Serine/threonine-protein kinase BRSK2 (Homo sapiens) (UniProt Q8IWQ3); conditions: Compound concentration 1000.0 nM
[5] = biological target: Calcium/calmodulin-dependent protein kinase type 1D (Homo sapiens) (UniProt Q8IU85); conditions: Compound concentration 1000.0 nM
[6] = biological target: Cyclin-dependent kinase-like 1 (Homo sapiens) (UniProt Q00532); conditions: Compound concentration 1000.0 nM
[7] = biological target: Serine/threonine-protein kinase Chk1 (Homo sapiens) (UniProt O14757); conditions: Compound concentration 1000.0 nM
[8] = biological target: Casein kinase I isoform alpha (Homo sapiens) (UniProt P48729); conditions: Compound concentration 1000.0 nM
[9] = system: Epidermal growth factor receptor (Homo sapiens), P00533 [UNDEFINED MUTATION]; conditions: Compound concentration 1000.0 nM
[10] = biological target: Fibroblast growth factor receptor 1 (Homo sapiens) (UniProt P11362); conditions: Compound concentration 1000.0 nM
[11] = biological target: Tyrosine-protein kinase FRK (Homo sapiens) (UniProt P42685); conditions: Compound concentration 1000.0 nM
[12] = biological target: Hormonally up-regulated neu tumor-associated kinase (Homo sapiens) (UniProt P57058); conditions: Compound concentration 1000.0 nM
[13] = biological target: Insulin receptor-related protein (Homo sapiens) (UniProt P14616); conditions: Compound concentration 1000.0 nM
[14] = biological target: Tyrosine-protein kinase ITK/TSK (Homo sapiens) (UniProt Q08881); conditions: Compound concentration 1000.0 nM
[15] = system: Mast/stem cell growth factor receptor Kit (Homo sapiens), P10721 [L576P]; conditions: Compound concentration 1000.0 nM
[16] = biological target: LIM domain kinase 2 (Homo sapiens) (UniProt P53671); conditions: Compound concentration 1000.0 nM
[17] = biological target: Mitogen-activated protein kinase kinase kinase 4 (Homo sapiens) (UniProt Q9Y6R4); conditions: Compound concentration 1000.0 nM
[18] = biological target: Mitogen-activated protein kinase kinase kinase kinase 5 (Homo sapiens) (UniProt Q9Y4K4); conditions: Compound concentration 1000.0 nM
[19] = biological target: MAP kinase-activated protein kinase 5 (Homo sapiens) (UniProt Q8IW41); conditions: Compound concentration 1000.0 nM
[20] = system: Hepatocyte growth factor receptor (Homo sapiens), P08581 [M1250T]; conditions: Compound concentration 1000.0 nM
[21] = biological target: Dual specificity mitogen-activated protein kinase kinase 7 (Homo sapiens) (UniProt O14733); conditions: Compound concentration 1000.0 nM
[22] = biological target: Myosin-IIIa (Homo sapiens) (UniProt Q8NEV4); conditions: Compound concentration 1000.0 nM
[23] = biological target: Serine/threonine-protein kinase Nek7 (Homo sapiens) (UniProt Q8TDX7); conditions: Compound concentration 1000.0 nM
[24] = biological target: Serine/threonine-protein kinase Nek9 (Homo sapiens) (UniProt Q8TD19); conditions: Compound concentration 1000.0 nM
[25] = biological target: Serine/threonine-protein kinase NIM1 (Homo sapiens) (UniProt Q8IY84); conditions: Compound concentration 1000.0 nM
[26] = biological target: Mitogen-activated protein kinase 12 (Homo sapiens) (UniProt P53778); conditions: Compound concentration 1000.0 nM
[27] = biological target: Calcium-dependent protein kinase 1 (Plasmodium falciparum) (UniProt P62344); conditions: Compound concentration 1000.0 nM
[28] = biological target: Cyclin-dependent kinase 15 (Homo sapiens) (UniProt Q96Q40); conditions: Compound concentration 1000.0 nM
[29] = biological target: Cyclin-dependent kinase 14 (Homo sapiens) (UniProt O94921); conditions: Compound concentration 1000.0 nM
[30] = biological target: Phosphatidylinositol 4-phosphate 5-kinase type-1 alpha (Homo sapiens) (UniProt Q99755); conditions: Compound concentration 1000.0 nM
[31] = biological target: Serine/threonine-protein kinase PLK3 (Homo sapiens) (UniProt Q9H4B4); conditions: Compound concentration 1000.0 nM
[32] = biological target: Protein kinase C epsilon type (Homo sapiens) (UniProt Q02156); conditions: Compound concentration 1000.0 nM
[33] = biological target: Protein kinase C eta type (Homo sapiens) (UniProt P24723); conditions: Compound concentration 1000.0 nM
[34] = biological target: Serine/threonine-protein kinase SIK1 (Homo sapiens) (UniProt P57059); conditions: Compound concentration 1000.0 nM
[35] = biological target: Serine/threonine-protein kinase TAO2 (Homo sapiens) (UniProt Q9UL54); conditions: Compound concentration 1000.0 nM
[36] = biological target: Serine/threonine-protein kinase tousled-like 1 (Homo sapiens) (UniProt Q9UKI8); conditions: Compound concentration 1000.0 nM
[37] = biological target: TRAF2 and NCK-interacting protein kinase (Homo sapiens) (UniProt Q9UKE5); conditions: Compound concentration 1000.0 nM
[38] = biological target: Activated CDC42 kinase 1 (Homo sapiens) (UniProt Q07912); conditions: Compound concentration 1000.0 nM
[39] = biological target: Serine/threonine-protein kinase 25 (Homo sapiens) (UniProt O00506); conditions: Compound concentration 1000.0 nM
[40] = biological target: Mitogen-activated protein kinase kinase kinase 20 (Homo sapiens) (UniProt Q9NYL2); conditions: Compound concentration 1000.0 nM
[41] = biological target: 5-hydroxytryptamine receptor 3A (Homo sapiens) (UniProt P46098); conditions: Compound concentration 10.0 uM
[42] = biological target: Sodium-dependent dopamine transporter (Homo sapiens, UniProt Q01959); conditions: Compound concentration 10.0 uM
[43] = biological target: Alpha-2C adrenergic receptor (Homo sapiens) (UniProt P18825); conditions: Compound concentration 10.0 uM
[44] = biological target: GABA-A receptor; anion channel (Rattus norvegicus) (UniProt O09028+P15431+P18506+P18508+P19969+P20236+P23574+P23576+P28471+P28473+P30191+P62813+P63079+P63138+Q91ZM7+Q9ES14); conditions: Compound concentration 10.0 uM

Sequence of Sodium-dependent serotonin transporter (P31645 whole entry): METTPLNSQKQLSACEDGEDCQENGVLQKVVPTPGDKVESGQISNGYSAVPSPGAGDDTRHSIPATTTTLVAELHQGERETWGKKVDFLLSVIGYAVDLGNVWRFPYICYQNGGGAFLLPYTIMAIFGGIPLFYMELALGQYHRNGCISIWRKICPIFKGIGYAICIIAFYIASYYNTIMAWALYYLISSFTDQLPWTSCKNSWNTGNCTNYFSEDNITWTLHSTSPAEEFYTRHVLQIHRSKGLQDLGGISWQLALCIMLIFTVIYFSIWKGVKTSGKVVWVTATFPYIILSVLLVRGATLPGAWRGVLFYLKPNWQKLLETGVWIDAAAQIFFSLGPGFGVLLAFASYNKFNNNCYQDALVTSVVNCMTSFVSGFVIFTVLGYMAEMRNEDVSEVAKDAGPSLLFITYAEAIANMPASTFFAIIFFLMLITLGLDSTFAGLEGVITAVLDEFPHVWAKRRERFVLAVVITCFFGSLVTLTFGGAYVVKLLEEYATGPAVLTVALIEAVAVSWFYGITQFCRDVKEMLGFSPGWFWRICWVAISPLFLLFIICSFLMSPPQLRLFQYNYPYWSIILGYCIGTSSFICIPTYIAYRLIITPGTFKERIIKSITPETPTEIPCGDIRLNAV
Sequence of Mitogen-activated protein kinase kinase kinase 4 (Homo sapiens) (Q9Y6R4 whole entry): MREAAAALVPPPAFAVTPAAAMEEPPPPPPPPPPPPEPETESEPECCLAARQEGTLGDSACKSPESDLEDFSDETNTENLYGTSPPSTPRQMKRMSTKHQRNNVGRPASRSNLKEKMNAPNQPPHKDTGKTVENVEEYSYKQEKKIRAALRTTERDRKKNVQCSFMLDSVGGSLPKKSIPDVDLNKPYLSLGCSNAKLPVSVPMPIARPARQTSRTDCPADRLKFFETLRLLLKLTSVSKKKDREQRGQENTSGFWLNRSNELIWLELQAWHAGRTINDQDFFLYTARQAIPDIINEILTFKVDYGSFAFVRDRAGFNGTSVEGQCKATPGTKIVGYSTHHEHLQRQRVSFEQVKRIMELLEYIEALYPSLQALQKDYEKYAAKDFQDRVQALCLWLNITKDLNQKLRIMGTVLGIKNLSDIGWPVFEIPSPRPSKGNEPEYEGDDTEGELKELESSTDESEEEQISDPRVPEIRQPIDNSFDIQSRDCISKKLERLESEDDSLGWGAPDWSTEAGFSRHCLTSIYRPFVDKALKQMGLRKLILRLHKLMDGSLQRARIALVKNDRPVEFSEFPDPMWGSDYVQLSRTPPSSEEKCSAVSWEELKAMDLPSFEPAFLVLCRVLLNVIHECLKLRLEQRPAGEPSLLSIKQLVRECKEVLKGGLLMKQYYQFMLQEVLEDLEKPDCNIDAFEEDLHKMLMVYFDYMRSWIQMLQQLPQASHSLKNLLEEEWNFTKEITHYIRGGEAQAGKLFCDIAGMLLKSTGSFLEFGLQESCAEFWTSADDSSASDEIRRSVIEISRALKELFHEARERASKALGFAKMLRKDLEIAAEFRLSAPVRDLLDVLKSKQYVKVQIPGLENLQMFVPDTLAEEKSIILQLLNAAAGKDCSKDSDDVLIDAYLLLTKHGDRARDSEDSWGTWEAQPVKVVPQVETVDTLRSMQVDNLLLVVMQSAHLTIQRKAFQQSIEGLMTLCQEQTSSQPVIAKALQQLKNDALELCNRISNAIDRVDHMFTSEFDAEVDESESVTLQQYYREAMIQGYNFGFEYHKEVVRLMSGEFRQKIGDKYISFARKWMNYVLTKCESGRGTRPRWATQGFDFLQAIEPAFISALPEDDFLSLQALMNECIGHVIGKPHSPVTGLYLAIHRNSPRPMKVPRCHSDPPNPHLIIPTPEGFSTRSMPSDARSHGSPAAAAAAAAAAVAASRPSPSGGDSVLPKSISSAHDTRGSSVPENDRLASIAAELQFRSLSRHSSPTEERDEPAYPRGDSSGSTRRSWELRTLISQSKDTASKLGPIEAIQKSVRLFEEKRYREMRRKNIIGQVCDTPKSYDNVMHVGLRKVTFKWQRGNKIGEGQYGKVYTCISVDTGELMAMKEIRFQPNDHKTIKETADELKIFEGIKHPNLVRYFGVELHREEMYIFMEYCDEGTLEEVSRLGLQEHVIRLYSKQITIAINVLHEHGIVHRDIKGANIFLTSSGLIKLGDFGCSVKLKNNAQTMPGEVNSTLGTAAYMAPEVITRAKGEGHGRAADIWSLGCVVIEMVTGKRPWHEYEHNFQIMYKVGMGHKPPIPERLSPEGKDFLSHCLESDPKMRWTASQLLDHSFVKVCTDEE
Sequence of LIM domain kinase 2 (Homo sapiens) (P53671 whole entry, looked up, the tested form may be a part): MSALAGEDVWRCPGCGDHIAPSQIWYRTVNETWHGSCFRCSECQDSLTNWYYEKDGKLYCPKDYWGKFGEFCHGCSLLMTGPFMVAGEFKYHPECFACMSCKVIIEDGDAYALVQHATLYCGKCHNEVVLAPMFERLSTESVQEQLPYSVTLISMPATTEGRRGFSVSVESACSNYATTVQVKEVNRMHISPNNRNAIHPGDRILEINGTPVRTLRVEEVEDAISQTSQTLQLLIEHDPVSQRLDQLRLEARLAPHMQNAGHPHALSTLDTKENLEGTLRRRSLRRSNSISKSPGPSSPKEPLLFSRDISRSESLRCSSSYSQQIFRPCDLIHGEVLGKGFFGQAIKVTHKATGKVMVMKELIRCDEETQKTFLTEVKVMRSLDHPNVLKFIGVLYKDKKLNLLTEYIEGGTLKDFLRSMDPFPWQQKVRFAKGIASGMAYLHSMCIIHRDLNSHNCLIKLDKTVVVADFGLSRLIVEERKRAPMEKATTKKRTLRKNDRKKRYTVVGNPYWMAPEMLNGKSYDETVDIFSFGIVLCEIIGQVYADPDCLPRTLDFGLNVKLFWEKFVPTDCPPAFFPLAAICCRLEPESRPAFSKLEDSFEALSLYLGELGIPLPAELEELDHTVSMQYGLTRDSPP
Sequence of Tyrosine-protein kinase FRK (Homo sapiens) (P42685 whole entry): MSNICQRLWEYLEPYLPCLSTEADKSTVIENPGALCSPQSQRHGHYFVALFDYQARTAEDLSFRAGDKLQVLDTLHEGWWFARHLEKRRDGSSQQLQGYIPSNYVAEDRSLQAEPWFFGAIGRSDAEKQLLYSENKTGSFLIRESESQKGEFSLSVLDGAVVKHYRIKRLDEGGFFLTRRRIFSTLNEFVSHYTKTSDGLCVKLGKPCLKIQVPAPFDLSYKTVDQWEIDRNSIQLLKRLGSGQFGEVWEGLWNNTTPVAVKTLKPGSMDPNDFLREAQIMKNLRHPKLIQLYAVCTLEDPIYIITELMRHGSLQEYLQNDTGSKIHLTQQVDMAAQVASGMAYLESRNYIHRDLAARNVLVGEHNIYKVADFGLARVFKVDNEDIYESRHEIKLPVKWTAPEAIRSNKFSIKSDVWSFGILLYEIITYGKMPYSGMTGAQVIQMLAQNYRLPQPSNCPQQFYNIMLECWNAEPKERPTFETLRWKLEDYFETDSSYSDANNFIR
Sequence of Myosin-IIIa (Homo sapiens) (Q8NEV4 whole entry): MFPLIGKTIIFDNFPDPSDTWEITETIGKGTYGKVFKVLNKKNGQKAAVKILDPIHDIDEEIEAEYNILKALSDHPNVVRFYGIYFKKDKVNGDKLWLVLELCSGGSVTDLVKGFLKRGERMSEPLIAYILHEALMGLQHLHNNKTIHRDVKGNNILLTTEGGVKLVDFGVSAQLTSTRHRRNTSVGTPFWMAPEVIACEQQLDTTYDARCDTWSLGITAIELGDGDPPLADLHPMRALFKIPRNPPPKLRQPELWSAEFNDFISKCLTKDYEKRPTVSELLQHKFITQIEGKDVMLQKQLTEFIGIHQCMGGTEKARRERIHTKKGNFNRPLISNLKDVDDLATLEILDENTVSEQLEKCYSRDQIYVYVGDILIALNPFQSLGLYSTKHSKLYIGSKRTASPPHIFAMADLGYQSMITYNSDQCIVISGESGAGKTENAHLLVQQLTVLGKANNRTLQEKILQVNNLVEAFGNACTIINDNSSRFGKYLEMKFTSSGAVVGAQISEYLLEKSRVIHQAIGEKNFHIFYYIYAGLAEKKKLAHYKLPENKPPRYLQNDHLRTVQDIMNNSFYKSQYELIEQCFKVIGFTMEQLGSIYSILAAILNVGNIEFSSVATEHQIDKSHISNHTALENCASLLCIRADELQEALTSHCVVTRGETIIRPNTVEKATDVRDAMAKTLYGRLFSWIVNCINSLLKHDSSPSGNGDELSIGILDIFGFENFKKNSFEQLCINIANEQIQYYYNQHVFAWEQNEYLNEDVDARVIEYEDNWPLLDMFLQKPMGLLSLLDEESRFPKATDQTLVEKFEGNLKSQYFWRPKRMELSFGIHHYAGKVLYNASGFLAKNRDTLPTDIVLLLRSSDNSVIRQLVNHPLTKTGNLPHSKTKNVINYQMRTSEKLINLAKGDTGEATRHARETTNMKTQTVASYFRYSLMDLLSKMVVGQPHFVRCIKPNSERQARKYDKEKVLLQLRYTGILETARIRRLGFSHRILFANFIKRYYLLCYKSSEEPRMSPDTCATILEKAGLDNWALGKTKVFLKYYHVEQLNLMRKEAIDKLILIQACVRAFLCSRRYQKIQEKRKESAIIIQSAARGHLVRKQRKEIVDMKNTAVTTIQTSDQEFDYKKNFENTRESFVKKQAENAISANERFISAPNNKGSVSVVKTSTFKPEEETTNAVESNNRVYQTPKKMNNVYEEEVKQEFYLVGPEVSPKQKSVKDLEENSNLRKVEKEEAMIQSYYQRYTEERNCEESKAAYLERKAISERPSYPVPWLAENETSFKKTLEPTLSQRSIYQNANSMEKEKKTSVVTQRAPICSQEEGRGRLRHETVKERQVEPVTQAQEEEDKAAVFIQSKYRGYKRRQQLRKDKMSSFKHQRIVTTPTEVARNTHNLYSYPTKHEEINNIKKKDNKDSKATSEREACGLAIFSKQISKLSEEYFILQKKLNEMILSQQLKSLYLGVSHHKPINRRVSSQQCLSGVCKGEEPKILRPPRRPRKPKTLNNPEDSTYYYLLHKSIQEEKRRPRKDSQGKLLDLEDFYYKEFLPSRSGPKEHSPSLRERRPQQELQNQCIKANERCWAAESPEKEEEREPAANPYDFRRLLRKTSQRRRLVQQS

## COc1cc(-c2cn([C@H]3CCc4c(F)cccc4N(CC(F)(F)F)C3=O)nn2)ccc1-n1cnc(C)c1
[1]; read-out: Ki
  Ki: 24 nM
[2]
  residual activity: 52%
[3]
  residual activity: 94%
[4]
  residual activity: 100%
[5]
  residual activity: 100%
[6]
  residual activity: 100%
[7]
  residual activity: 100%
[8]
  residual activity: 100%
[9]
  residual activity: 0%
[10]
  residual activity: 100%
[11]
  residual activity: 100%
[12]
  residual activity: 100%
[13]
  residual activity: 100%
[14]
  residual activity: 100%
[15]
  residual activity: 100%
[16]
  residual activity: 100%
[17]
  residual activity: 94%
[18]
  residual activity: 5.8%
[19]
  residual activity: 100%
[20]
  residual activity: 100%
[21]
  residual activity: 100%
[22]
  residual activity: 100%
[23]
  residual activity: 100%
[24]
  residual activity: 100%
[25]
  residual activity: 78%
[26]
  residual activity: 79%
[27]
  residual activity: 100%
[28]
  residual activity: 100%
[29]
  residual activity: 100%
[30]
  residual activity: 100%
[31]
  residual activity: 100%
[32]
  residual activity: 100%
[33]
  residual activity: 100%
[34]
  residual activity: 100%
[35]
  residual activity: 100%
[36]
  residual activity: 100%
[37]
  residual activity: 94%
[38]
  residual activity: 100%
[39]
  residual activity: 100%
[40]
  residual activity: 100%
[41]
  inhibition: -8%
[42]
  inhibition: 99.7%
[43]
  inhibition: 38.3%
[44]
  inhibition: 28.6%

## COc1cc(-c2cn([C@H]3CCc4ccccc4N(CC(F)(F)F)C3=O)nn2)ccc1-n1ccc(C)n1
[1]; read-out: Ki
  Ki: 391 nM
[1]; read-out: pKi (converted)
  Ki: 380 nM
[2]
  residual activity: 47%
[3]
  residual activity: 78%
[4]
  residual activity: 97%
[5]
  residual activity: 100%
[6]
  residual activity: 97%
[7]
  residual activity: 100%
[8]
  residual activity: 98%
[9]
  residual activity: 100%
[10]
  residual activity: 99%
[11]
  residual activity: 100%
[12]
  residual activity: 100%
[13]
  residual activity: 100%
[14]
  residual activity: 100%
[15]
  residual activity: 62%
[16]
  residual activity: 100%
[17]
  residual activity: 85%
[18]
  residual activity: 100%
[19]
  residual activity: 91%
[20]
  residual activity: 100%
[21]
  residual activity: 100%
[22]
  residual activity: 100%
[23]
  residual activity: 100%
[24]
  residual activity: 100%
[25]
  residual activity: 80%
[26]
  residual activity: 100%
[27]
  residual activity: 99%
[28]
  residual activity: 100%
[29]
  residual activity: 100%
[30]
  residual activity: 96%
[31]
  residual activity: 96%
[32]
  residual activity: 100%
[33]
  residual activity: 73%
[34]
  residual activity: 100%
[35]
  residual activity: 100%
[36]
  residual activity: 84%
[37]
  residual activity: 81%
[38]
  residual activity: 100%
[39]
  residual activity: 100%
[40]
  residual activity: 85%
[41]
  inhibition: -9.73%
[42]
  inhibition: 5.21%
[43]
  inhibition: 9.04%
[44]
  inhibition: 0.92%
